Experimental findings from US8367332B2, “Detection and quantification of abasic site formation in vivo” (Case Western Reserve University, priority 2008, dated 2013) are described below.

For data set [1], the system named is AP sites. Nature of the data set: In vivo blocking experiment with unlabelled MX (microPET, glioma tumors). Details: species or system mice. Conditions: TMZ 80 mg/kg; unlabelled MX 2-10 mg/kg 30 min before [^11C]MX 2 mCi/kg; p value=0.003. As to the method: FIG. 4 illustrates; (A) plots of time-radioactivity courses of [^11C]MX in the glioma tumors before and after blocking by unlabelled MX; and (B) a graph showing average SUV between 0-60 min (n=4, where n is the number of tumors imaged and analyzed). Decrease of radioactivity concentration indicates in vivo blocking of AP binding sites by unlabeled MX (p value=0.003).
Thus, we conducted in vivo blocking experiment in tumor mice with unlabelled MX as a further test of whether the difference in radioactivity concentrations between TMZ-treated and untreated tumors is due to specific binding of [^11C]MX to AP sites. For this purpose, 4 tumor-bearing mice were treated with TMZ (80 mg/kg) for 10 min. Following the treatment, two mice were injected with unlabelled MX (2-10 mg/kg) and two were injected with vehicle control. Thirty minutes later, 2 mCi/kg of [^11C]MX was administered to each mouse and microPET imaging was performed. In each case, a vehicle-treated and an unlabeled MX-treated mouse were imaged side-by-side. Dynamic acquisition was carried out for 60 min in list mode.

For data set [2], the system named is AP sites. Nature of the data set: ARP assay of AP sites in A375 melanoma cells. Conditions: 12.5 mM co-treatment with TMZ, 24 hr. In kind it is cell-based. On the procedure: FIG. 5 illustrates a graph showing AP sites increased in melanoma cells (A375) after treatment with TMZ in a dose-dependent manner. Using ARP assay, formation of AP sites in A375 melanoma cells were measured. Cells were treated with TMZ (0-1500 μM) alone or TMZ plus MX (12.5 mM) for 24 hr for a dose-dependent assay (black), or treated with TMZ and MX (12.5 mM) for 24 hr, or treated with TMZ and F422 (12.5 mM) for 24 hours.

The subject of data set [3] is AP sites. The data set is described as follows: microPET of [^11C]MX in flank glioma (U87) xenografts, TMZ-treated vs non-treated. In kind it is in vivo, mice. Conditions: flank glioma xenograft; TMZ 80 mg/kg; 60 min scan. As to the method: (§1) Melanoma and glioma xenografts were prepared according to previously published procedures. Briefly, glioma (U87) and melanoma (WM164) tumor cells (5×10^6) were injected into the bilateral flanks of female athymic NRC nude mice (6-8 weeks of age). When the volume of tumor nodules reached 150-200 mm^3, mice are randomly assigned to control or treatment groups (4 mice/group).
Following MRI studies, the mice were transferred to a Concord R4 microPET scanner under anesthesia. The same holder was used for microPET studies so that the tumor positions of the mice remain unchanged in order to facilitate image coregistration with MRI. […] Body temperature in the anesthetized animals was monitored using a rectal temperature probe and maintained at 37+/−2° C. with a heating lamp or a heating pad.
Following MRI and microPET studies, we conducted quantitative image analysis in order to evaluate the in vivo pharmacokinetic profiles of [^11C]MX in tumor tissues. […] The co-registered images were used for quantitative image analysis to determine [^11C]MX uptake and retention associated with tumor tissues. The radioactivity concentration in the tumor regions is expressed in terms of standard uptake volume (SUV) [(μCi/cc)/(uCi/g)] as a function of time.
Malignant glioma is another type of cancer that can be effectively treated with TMZ because TMZ can readily penetrate the blood-brain barrier. […]

Data set [4] deals with AP sites. Nature of the data set: microPET of [^11C]MX in melanoma (WM164) xenografts, TMZ-treated vs non-treated. Format: in vivo, mice. Conditions: melanoma xenograft. As to the method:
as §1
Following MRI studies, the mice were transferred to a Concord R4 microPET scanner under anesthesia. The same holder was used for microPET studies so that the tumor positions of the mice remain unchanged in order to facilitate image coregistration with MRI. Subsequently, dynamic microPET scans were performed over 60 min in a list mode, immediately after a bolus injection of ca. 500 μCi of [^11C]MX via the tail vein. Body temperature in the anesthetized animals was monitored using a rectal temperature probe and maintained at 37+/−2° C. with a heating lamp or a heating pad.
Following MRI and microPET studies, we conducted quantitative image analysis in order to evaluate the in vivo pharmacokinetic profiles of [^11C]MX in tumor tissues. We defined the tumor tissues as the region of interest (ROI) through coregistration of microPET images with MRI images. The co-registered images were used for quantitative image analysis to determine [^11C]MX uptake and retention associated with tumor tissues. The radioactivity concentration in the tumor regions is expressed in terms of standard uptake volume (SUV) [(μCi/cc)/(uCi/g)] as a function of time.
Because TMZ, like dacarbazine, has been used in the treatment patients with metastatic malignant melanoma, we first conducted microPET studies in human (WM164) melanoma xenograft tumor model. In each experiment, two mice bearing melanoma xenografts were used, one treated with TMZ (80 mg/kg) to induce DNA damage and the other used as negative control. Prior to microPET scans, the mice were placed in a 7T MRI scanner and T2-weighted MRI images were acquired following the above-mentioned protocol. […]

As to `CON` [MX, methoxyamine], the “concentration of tumor-associated radioactivity after blocking with unlabelled MX” value with AP sites [1] was “significantly decreased”. Moreover, the “ARP detected AP sites on co-treatment with TMZ” value in the data set on AP sites [2] is “reduced the ARP detected AP sites”.

Turning to `[11CH3]ON` [[^11C]MX, (^11C)methoxyamine], the “retention of [^11C]MX in tumor regions” value with AP sites [3] was “higher in TMZ-treated tumor regions than in non-treated tumor regions”. Also, the “radioactivity concentration in tumor, TMZ-treated vs non-treated mice” value in the data set with AP sites [4] (TMZ 80 mg/kg, 10 min post injection of [^11C]MX (ca. 2 mCi/kg i.v.)) came to 1.6 fold. Further, the “tumor uptake of [^11C]MX in TMZ-treated vs non-TMZ treated mice” value in the data set with AP sites [4] (TMZ 80 mg/kg, 60 min scan) is on record as “increased uptake”. The “entry of [^11C]MX into tumor tissue” value with AP sites [4] (i.v. ca. 2 mCi/kg, microPET) was “readily entered the tumor tissue at early time points”.
